Measurements published in article PMC8879702, “Discovery of Small Molecule Activators of Chemokine Receptor CXCR4 That Improve Diabetic Wound Healing” (International Journal of Molecular Sciences, 2022).
pEC50: −log10 of the molar value.

Columns and labels:
Assay type in all cases: cell-based
[1] = test system: CEM-CCRF cells; experiment: 96 wells transwell migration assay in CEM human lymphoblast cells
Description: Thus, to confirm CXCR4 functional activity, we evaluated UCUF-728 in a 96 wells transwell migration assay in CEM human lymphoblast cells. […] (Supplemental Figure S7). From the analog structure–activity relationship studies and characterization studies in the chemotaxis assay, cAMP signaling and CXCR4 binding assay, we identified UCUF-728 as a potent and functionally selective CXCR4 receptor modulator.
CEM-CCRF (ATCC CCL-119) were suspended in RPMI 1640 (Corning; 10-040-CV) at 5.0 × 10^5 cells/mL and allowed to incubate in cell culture incubator at 37 °C with 5% CO2 for one hour. […] Following 1 h cell incubation and compound dispensing, 150 μL of RPMI 1640 supplemented with 2% Fetal Bovine Serum was added to each well of the compound receiver tray, and 50 μL of 5 × 10^5 cells/mL cell suspension in RPMI were added to each well of the top filter plate. Plates were reassembled and placed in a cell culture incubator at 37 °C with 5% CO2 for three hours. After incubation, Multi-Screen plate was disassembled and 100 μL of solution was collected from compound receiver tray and transferred to 96 well luminescent plate and an equal volume of ATPLite 1step luminescence reagent (Perkin Elmer, Waltham, MA, USA) was added to each well. Luminescence was measured using the CLARIOstar Plus (BMG LABTECH Inc., Cary, NC, USA).

[2] = biological target: T1, CXCR4 receptor (Homo sapiens, UniProt P61073); experiment: 384 w β-arrestin recruitment assay (Tango CXCR4-bla U2OS cells, PeproTech SDF-1α); set-up: host or cells: Tango CXCR4-bla U2OS cells
T1 sequence (P61073 whole entry): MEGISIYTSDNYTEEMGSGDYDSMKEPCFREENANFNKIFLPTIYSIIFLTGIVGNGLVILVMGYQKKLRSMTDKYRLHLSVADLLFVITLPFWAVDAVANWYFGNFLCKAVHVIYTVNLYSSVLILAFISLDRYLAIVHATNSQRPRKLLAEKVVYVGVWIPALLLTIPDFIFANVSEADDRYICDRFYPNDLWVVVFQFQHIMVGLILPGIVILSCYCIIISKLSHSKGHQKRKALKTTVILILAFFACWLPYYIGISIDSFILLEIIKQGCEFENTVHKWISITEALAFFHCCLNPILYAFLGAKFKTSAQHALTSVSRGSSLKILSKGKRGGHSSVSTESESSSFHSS
Procedure: Tango™ CXCR4-bla U2OS Cells were resuspended in assay media consisting of DMEM (Corning; Corning, NY, USA) supplemented with 1% dialyzed Fetal bovine serum, 0.1 mM MEM Non-essential amino acids solution, 25 mM HEPES solution (Corning; Corning, NY, USA), 1 mM Sodium Pyruvate and 100 IU penicillin, […] streptomycin sulfate (Corning; Corning, NY, USA) at a density of 3.0 × 10^5 cells/mL. Cells suspension was dispensed at 30 μL per well into assay plate and incubated overnight in a cell culture incubator at 37 °C with 5% CO2. Following overnight incubation, LiveBlazer FRET B/G Loading Kit working reagent was prepared according to supplier guidelines and 6 μL of solution was dispensed into each well. Assay plate was covered and incubated in a dark place for two hours and Fluorescence Intensity was measured using the BMG LABTECH CLARIOstar Plus (BMG LABTECH Inc., Cary, NC, USA) according to the LiveBlazer FRET B/G Loading Kit excitation and emission measurement guidelines.

[3] = biological target: T1, CXCR4 receptor; experiment: cAMP signaling assay, forskolin-induced, PathHunter CHO-K1 CXCR4 cells; conditions: CHO-K1 CXCR4 overexpressed cells
Procedure: The CXCR4 receptor is a G-protein coupled receptor (GPCR) coupled to the Gi class, whose primary role is inhibition of adenylate cyclase. We tested the ability of UCUF-728 to induce a Gi-mediated cAMP-inhibitory cellular response. […] (Figure 2B).
Forskolin at final concentration of 0.5 mM was added to all wells using the TECAN dispenser. […] of PathHunter CHO-K1 CXCR4 cells (DiscoverX, Fremont, CA, USA) were added to compounds at 3000 cells/well, centrifuged at 1000 rpm for 30 s and incubated for 30 min at room temperature. DMSO (Sigma Aldrich, St. Louis, MO, USA) was normalized to 0.5%. […] of 4X Eu-cAMP tracer working solution were added to all wells, followed by addition of 5 μL of 4X Ulight-anti-cAMP working solution to all wells. Plates were centrifuged at 1000 rpm for 1 min and incubated for 1 h at room temperature, then read using CLARIOstar Plus (BMG LABTECH Inc., Cary, NC, USA) Lance CAMP protocol.

[4] = test system: miR-15b; experiment: miR-15b expression in human diabetic fibroblasts (real time qPCR)
Procedure: An additional secondary screen was performed to further validate the activity of UCUF-728 as a selective CXCR4 receptor modulator. Human diabetic and non-diabetic fibroblasts were cultured with increasing concentrations of the compound. The cells were incubated for 24 h and then total cellular RNA was isolated to examine the ability of the compound to correct the abnormal expression of miR-15b, and miR-29a. We have shown that human diabetic skin has an increased miR-15b expression at the baseline compared to non-diabetic skin [7].
CEM-CCRF cells (ATCC CCL-119) were cultured in growth media consisting of RPMI 1640 (Corning; Corning NY, USA) supplemented with 10% Fetal Bovine Serum (Corning; Corning, NY, USA), and 100 IU penicillin, […] streptomycin sulfate (Corning; Corning, NY, USA). Cells were maintained in suspension and subcultured twice weekly to maintain cell densities between 0.8 × 10^6 cells/mL and 2.5 × 10^6 cells/mL to maintain exponential growth phase. […]
Total RNA was extracted with TRIzol reagent (Invitrogen, Carlsbad, CA, USA) according to the manufacturer’s established protocol. […] Quantitative PCR was performed on a BIO-RAD CFX96 according to the manufacturer’s instructions. Quantitative values of genes of interest are normalized based on U6. […]

pEC50 [2]: 6.30
Emax ([2]; U2OS): 30%
SMILES: COc1ccc(OC)c(NS(=O)(=O)c2ccc(-c3cnc(C4CC4)o3)cc2)c1 [Compound 19]
induction of cell migration ([1]; compound in lower channel, 3 h): induced migration with a similar EC50 and Emax as the B-arrestin recruitment activity
effect on SDF-1α-mediated migration response ([1]; saturating concentrations of UCUF-728): potentiated
inhibition of forskolin-induced adenylate cyclase (cAMP signaling) [3]: did not inhibit forskolin-induced adenylate cyclase
lowest concentration with potent suppression of miR-15b expression [4]: 0.1 µM
miR-15b expression ([4]; 24 h): decreased the expression of miR-15b
